Experimental data from paper PMC7316778 (Nature Communications, 2020).
Where “and” joins values, the source holds several entries; their conditions need not be identical. Identical values can stand only once. Like-named read-outs stand apart in the source and are kept apart here.

Tests used:
CAMK2A (CaMKII alpha) = CAMK2A (CaMKII alpha) (Homo sapiens, UniProt Q9UQM7); experiment: SelectScreen kinase assay
Experimental: (§1) Selectivity profiling assays were performed by the Invitrogen SelectScreen™ Services. […] The concentration of ATP was selected to be equal to the KM, unless indicated otherwise.

DAPK3 (ZIPK) = DAPK3 (ZIPK) (Homo sapiens, UniProt O43293); experiment: SelectScreen kinase assay; settings: for Inhibition at 1 µM (%): DAPK3 (ZIPK), ZLYTE, ATP Km app
DAPK3 (ZIPK), sequence (O43293 whole entry): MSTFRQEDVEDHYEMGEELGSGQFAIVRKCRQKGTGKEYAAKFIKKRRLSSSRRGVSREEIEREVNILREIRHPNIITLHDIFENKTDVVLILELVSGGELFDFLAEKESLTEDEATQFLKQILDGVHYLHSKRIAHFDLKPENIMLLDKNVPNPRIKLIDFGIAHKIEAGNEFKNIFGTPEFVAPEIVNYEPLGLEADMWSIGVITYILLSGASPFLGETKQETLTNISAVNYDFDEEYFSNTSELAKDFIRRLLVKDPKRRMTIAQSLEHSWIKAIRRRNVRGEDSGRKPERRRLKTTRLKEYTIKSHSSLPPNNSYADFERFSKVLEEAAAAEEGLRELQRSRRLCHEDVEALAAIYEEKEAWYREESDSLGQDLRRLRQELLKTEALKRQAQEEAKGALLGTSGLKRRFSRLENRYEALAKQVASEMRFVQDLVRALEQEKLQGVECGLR
Experimental: as §1

DCAMKL1 (DCLK1) = target: T1, DCAMKL1 (DCLK1) (Homo sapiens, UniProt O15075); experiment: SelectScreen kinase assay
T1 sequence (O15075 1-740): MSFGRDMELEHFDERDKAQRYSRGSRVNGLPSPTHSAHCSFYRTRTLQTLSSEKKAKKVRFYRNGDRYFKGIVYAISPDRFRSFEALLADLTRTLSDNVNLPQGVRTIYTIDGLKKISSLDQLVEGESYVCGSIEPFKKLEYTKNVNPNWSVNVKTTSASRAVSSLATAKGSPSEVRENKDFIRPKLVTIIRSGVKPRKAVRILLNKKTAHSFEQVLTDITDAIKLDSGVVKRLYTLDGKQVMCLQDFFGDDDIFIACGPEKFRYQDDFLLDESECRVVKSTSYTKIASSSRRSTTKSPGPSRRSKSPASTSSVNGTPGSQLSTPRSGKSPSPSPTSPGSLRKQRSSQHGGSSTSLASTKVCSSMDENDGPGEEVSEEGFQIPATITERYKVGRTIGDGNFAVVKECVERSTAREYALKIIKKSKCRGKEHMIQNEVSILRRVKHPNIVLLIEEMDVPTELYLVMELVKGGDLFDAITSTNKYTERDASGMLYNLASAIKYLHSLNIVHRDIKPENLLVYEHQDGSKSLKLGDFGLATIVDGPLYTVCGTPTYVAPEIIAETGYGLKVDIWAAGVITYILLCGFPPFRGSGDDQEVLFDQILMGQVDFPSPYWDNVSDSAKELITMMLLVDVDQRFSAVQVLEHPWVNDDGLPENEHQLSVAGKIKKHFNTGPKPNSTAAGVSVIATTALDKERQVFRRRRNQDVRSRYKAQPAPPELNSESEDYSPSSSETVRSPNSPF
Experimental: as §1

LIMK2 = LIMK2 (Homo sapiens, UniProt P53671); experiment: SelectScreen kinase assay
LIMK2, sequence (P53671 whole entry): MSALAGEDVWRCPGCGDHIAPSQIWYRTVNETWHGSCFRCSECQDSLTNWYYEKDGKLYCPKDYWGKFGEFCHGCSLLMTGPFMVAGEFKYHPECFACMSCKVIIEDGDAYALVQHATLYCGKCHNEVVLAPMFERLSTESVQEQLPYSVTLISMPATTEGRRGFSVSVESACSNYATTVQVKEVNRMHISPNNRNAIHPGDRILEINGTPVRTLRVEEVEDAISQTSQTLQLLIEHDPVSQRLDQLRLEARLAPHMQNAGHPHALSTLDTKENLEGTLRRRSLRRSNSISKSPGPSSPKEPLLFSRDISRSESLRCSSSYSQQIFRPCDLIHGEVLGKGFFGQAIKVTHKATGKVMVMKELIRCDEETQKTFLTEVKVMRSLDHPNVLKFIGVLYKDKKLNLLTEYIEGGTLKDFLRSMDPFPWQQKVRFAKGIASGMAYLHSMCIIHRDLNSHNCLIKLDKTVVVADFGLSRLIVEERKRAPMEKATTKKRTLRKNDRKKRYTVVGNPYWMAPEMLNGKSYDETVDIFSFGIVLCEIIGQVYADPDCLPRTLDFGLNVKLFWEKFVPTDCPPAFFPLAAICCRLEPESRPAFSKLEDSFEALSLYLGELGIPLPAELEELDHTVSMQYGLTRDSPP
Experimental: as §1

PIM1 = PIM1 (Homo sapiens, UniProt P11309); experiment: SelectScreen kinase assay; settings: for Inhibition at 1 µM (%): PIM1, ZLYTE, ATP Km app
PIM1, sequence (P11309 whole entry): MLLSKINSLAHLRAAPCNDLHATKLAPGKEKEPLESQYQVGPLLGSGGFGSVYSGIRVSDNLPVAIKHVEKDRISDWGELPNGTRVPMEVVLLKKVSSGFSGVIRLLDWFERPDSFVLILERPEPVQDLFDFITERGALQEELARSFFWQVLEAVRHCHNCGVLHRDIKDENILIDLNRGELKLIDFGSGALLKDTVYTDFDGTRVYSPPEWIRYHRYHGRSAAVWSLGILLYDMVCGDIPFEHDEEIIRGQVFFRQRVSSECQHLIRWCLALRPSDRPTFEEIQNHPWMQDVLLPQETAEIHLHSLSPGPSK
Experimental: as §1

SGKL (SGK3) = SGKL (SGK3) (Homo sapiens, UniProt Q96BR1); experiment: SelectScreen kinase assay
SGKL (SGK3), sequence (Q96BR1 whole entry): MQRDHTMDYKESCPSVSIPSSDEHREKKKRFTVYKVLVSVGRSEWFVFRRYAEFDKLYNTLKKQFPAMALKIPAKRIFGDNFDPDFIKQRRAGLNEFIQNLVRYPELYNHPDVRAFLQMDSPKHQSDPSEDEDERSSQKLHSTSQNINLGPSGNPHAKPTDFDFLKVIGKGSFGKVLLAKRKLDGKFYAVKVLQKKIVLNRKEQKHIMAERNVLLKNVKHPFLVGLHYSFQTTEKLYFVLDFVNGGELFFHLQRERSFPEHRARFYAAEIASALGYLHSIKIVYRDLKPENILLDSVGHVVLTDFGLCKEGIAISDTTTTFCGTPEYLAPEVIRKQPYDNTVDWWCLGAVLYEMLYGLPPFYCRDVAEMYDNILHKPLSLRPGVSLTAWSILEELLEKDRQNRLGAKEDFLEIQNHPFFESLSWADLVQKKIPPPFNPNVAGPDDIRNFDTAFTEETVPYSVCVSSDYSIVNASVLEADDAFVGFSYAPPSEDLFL
Experimental: as §1

TAOK3 (JIK) = target: T2, TAOK3 (JIK) (Homo sapiens, UniProt Q9H2K8); experiment: SelectScreen kinase assay; settings: for Inhibition at 1 µM (%): LanthaScreen Binding
T2 sequence (Q9H2K8 1-898): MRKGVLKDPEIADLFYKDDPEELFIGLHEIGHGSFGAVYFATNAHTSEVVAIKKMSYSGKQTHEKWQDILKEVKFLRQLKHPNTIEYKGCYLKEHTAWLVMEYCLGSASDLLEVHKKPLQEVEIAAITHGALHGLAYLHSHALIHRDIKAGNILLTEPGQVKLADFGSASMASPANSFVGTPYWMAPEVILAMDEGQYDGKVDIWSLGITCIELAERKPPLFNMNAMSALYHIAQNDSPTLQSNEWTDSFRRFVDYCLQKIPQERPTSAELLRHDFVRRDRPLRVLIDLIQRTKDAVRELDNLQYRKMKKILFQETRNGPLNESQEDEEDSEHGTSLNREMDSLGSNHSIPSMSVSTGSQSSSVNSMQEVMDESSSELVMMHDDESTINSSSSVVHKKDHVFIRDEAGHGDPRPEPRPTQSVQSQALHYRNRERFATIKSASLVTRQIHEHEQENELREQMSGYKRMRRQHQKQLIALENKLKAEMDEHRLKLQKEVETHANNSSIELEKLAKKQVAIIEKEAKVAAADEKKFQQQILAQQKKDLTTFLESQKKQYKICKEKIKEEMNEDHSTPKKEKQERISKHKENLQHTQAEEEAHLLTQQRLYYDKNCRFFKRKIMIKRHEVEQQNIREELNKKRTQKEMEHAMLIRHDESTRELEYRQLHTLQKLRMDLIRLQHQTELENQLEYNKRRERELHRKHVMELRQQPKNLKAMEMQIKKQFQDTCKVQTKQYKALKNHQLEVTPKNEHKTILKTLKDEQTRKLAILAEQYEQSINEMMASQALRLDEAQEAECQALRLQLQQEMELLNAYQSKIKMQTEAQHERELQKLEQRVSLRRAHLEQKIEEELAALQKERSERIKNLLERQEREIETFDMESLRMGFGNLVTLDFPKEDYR
Experimental: as §1

TLK1 = TLK1 (Homo sapiens, UniProt Q9UKI8); experiment: SelectScreen kinase assay
TLK1, sequence (Q9UKI8 whole entry): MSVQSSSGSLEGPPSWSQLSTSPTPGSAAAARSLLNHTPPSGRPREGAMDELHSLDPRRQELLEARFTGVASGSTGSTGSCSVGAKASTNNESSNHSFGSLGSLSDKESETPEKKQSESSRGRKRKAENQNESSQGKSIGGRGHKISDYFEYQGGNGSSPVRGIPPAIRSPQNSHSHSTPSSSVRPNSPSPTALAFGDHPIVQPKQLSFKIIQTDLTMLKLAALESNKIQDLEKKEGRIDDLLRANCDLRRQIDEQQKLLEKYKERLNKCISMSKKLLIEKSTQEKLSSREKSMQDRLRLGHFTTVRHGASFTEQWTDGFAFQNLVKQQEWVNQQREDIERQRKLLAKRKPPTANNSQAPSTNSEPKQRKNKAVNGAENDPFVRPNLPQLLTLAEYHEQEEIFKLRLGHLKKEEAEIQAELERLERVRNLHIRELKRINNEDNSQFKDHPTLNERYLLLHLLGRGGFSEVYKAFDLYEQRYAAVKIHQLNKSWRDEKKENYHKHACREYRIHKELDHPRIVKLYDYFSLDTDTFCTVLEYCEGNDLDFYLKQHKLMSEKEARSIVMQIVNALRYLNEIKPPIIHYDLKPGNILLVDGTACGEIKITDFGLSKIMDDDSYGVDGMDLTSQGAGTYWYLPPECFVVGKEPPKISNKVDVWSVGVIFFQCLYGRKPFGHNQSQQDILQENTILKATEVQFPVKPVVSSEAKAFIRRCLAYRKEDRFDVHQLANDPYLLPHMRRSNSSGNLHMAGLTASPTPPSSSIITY
Experimental: as §1

endogenous FES^S700C = endogenous FES^S700C (Homo sapiens, UniProt P07332, S700C); experiment: In situ target engagement in live HL-60 macrophages (WEL033 post-labeling); type: cell-based; design: endogenous in cells; host or cells: HL-60 FES^S700C clone, differentiated to macrophages or neutrophils; settings: for Relative FES labeling (%) Mean: Supplementary Figure 13b
endogenous FES^S700C, sequence (P07332 whole entry S700C): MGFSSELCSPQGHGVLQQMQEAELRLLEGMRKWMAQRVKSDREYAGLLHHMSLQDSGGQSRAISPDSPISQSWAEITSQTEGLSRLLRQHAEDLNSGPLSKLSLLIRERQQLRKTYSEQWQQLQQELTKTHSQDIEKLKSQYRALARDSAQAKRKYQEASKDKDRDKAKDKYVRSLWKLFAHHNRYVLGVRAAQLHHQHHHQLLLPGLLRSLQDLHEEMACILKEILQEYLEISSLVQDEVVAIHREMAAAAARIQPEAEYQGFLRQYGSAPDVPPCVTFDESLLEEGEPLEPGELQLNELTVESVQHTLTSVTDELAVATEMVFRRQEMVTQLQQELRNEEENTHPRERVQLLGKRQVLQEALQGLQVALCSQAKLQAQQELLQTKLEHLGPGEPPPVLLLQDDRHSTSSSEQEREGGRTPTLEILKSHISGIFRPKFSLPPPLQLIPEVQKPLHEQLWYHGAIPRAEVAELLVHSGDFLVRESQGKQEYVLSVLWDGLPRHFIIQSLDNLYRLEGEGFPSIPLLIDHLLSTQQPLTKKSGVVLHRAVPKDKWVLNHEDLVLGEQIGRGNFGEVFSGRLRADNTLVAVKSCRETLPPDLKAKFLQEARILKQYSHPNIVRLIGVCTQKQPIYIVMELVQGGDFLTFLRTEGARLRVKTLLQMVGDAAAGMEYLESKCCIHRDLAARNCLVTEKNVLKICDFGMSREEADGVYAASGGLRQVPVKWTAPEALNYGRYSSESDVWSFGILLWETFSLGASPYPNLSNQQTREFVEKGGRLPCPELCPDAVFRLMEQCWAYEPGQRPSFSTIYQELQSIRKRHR
From the text: and harvested. […] Band intensities were
Values represent means of fold enrichment (n

[1] = 1 h, 1 μM WEL028, 1 h preincubation

CAMK2A (CaMKII alpha), sequence (Q9UQM7 whole entry): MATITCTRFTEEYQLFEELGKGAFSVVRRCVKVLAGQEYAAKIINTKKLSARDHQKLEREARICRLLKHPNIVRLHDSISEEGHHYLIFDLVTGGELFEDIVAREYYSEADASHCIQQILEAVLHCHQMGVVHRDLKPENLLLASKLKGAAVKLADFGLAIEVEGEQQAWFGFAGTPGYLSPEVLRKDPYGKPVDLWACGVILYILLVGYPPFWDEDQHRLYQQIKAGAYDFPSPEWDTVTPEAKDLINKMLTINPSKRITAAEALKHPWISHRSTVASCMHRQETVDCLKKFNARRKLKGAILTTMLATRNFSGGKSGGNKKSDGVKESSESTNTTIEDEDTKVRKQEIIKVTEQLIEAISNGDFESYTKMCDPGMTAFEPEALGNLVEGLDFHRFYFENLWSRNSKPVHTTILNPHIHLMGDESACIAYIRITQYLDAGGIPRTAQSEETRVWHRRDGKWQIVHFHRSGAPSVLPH

Structure (SMILES): C#CCOc1ccc(Nc2ncc(Cl)c(Nc3ccccc3NC(=O)C=C)n2)c(OC)c1 [Compound 6]
- inhibition at 1 µM (CAMK2A (CaMKII alpha); [1]): -6%
- Inhibition at 1 µM (%) (CAMK2A (CaMKII alpha); CAMK2A (CaMKII alpha), 1 µM, ZLYTE, ATP Km app, listed as WEL028, 1 µM): -7% and -5%
- inhibition at 1 µM (DAPK3 (ZIPK); [1]): 4%
- Inhibition at 1 µM (%) (DAPK3 (ZIPK)): 2%
- Inhibition at 1 µM (%) (DAPK3 (ZIPK); listed as WEL028, 1 µM): 5%
- Inhibition (%) (DCAMKL1 (DCLK1); 1 μM WEL028, 1 h preincubation): 4%
- Inhibition at 1 µM (%) (DCAMKL1 (DCLK1); DCAMKL1 (DCLK1), 1 µM, ZLYTE, ATP Km app, listed as WEL028, 1 µM): 5%
- inhibition at 1 µM (DCAMKL1 (DCLK1); read-out: Inhibition at 1 µM (%), DCAMKL1 (DCLK1), 1 µM, ZLYTE, ATP Km app): 3%
- inhibition at 1 µM (LIMK2; [1]): -2%
- Inhibition at 1 µM (%) (LIMK2; LIMK2, 1 µM, LanthaScreen Binding, listed as WEL028, 1 µM): -5% and 1%
- inhibition at 1 µM (PIM1; [1]): -8%
- Inhibition at 1 µM (%) (PIM1): -11%
- Inhibition at 1 µM (%) (PIM1; listed as WEL028, 1 µM): -5%
- Inhibition at 1 µM (%) (SGKL (SGK3); 1 µM, ZLYTE, ATP Km app, listed as WEL028, 1 µM): -12% and -2%
- inhibition at 1 µM (SGKL (SGK3); [1]): -7%
- Inhibition at 1 µM (%) (TAOK3 (JIK)): 2%
- Inhibition at 1 µM (%) (TAOK3 (JIK); listed as WEL028, 1 µM): 0%
- inhibition at 1 µM (TAOK3 (JIK); [1]): 1%
- inhibition at 1 µM (TLK1; [1]): 1%
- inhibition at 1 µM (TLK1; read-out: Inhibition at 1 µM (%), 1 µM, LanthaScreen Binding): 2%
- IC50 (endogenous FES^S700C; live FES^S700C HL-60 macrophages, 1 h, WEL033 1 µM post-labeling, n = 3, read-out: pIC50, relative FES labeling (converted)): 3.98 nM
- Relative FES labeling (%) Mean (endogenous FES^S700C; log[WEL028] (M) -6): 6.696%
- Relative FES labeling (%) Mean (endogenous FES^S700C; log[WEL028] (M) -7): 2.482%
- Relative FES labeling (%) Mean (endogenous FES^S700C; log[WEL028] (M) -7.52288): 5.093%
- Relative FES labeling (%) Mean (endogenous FES^S700C; log[WEL028] (M) -8): 18.898%
- Relative FES labeling (%) Mean (endogenous FES^S700C; log[WEL028] (M) -8.52288): 58.4122%
- Relative FES labeling (%) Mean (endogenous FES^S700C; log[WEL028] (M) -9): 92.5647%
